Source: patent publication US20160220569A1, “CDK4/6 Inhibitor Dosage Formulations For The Protection Of Hematopoietic Stem And Progenitor Cells During Chemotherapy” (G1 Therapeutics, Inc., priority 2015, published 2016)
Several values for one entry are separate records, joined by “and”; a condition that tells them apart may be missing. Identical values can stand only once. Like-named read-outs stand apart in the source and are kept apart here.

Assay: Topotecan PK following Compound 1 infusion
Assay type: in vivo, human
Conditions: human, plasma, intravenous
Description: Blood samples were obtained prior to dosing, at the end of the 30-minute infusion (EOI), and at 0.5, 1, 1.5, 2, 2.5, 4, 6, 8, and 24 hours after the end of infusion. Analysis of plasma concentration versus time data for calculation of standard pharmacokinetic (PK) parameters following intravenous infusion administration was conducted using Phoenix WinNonlin version 6.3 using a nominal infusion duration and scheduled blood sampling times. In Cohort 2 there were 3 subjects who received 1.25 mg/m^2 of topotecan once daily on Days 1 to 5. In Cohort 3 there were 4 subjects who received 0.75 mg/m^2 of topotecan once daily on Days 1 to 5.

Question: Which results are given for `CC[C@@]1(O)C(=O)OCc2c1cc1n(c2=O)Cc2cc3c(CN(C)C)c(O)ccc3nc2-1.Cl` [topotecan, (S)-10-[(dimethylamino)methyl]-4-ethyl-4,9-dihydroxy-1H-pyrano[3′,4′:6,7]indolizino[1,2-b]quinoline-3,14(4H,12H)-dione monohydrochloride]?
Answer: Cmax (Topotecan 0.75 mg/m^2 (Cohort 3) with Compound 1 200 mg/m^2, Day 1, Mean, read-out: Cmax): 27.3 ng/mL; half-life (Topotecan 0.75 mg/m^2 (Cohort 3) with Compound 1 200 mg/m^2, Day 1, Mean, read-out: t½ (converted)): 4.33 h; AUC (Topotecan 0.75 mg/m^2 (Cohort 3) with Compound 1 200 mg/m^2, Day 1, Median, read-out: AUC24.5): 89.1 ng·h/mL; AUC(0-inf) (Topotecan 0.75 mg/m^2 (Cohort 3) with Compound 1 200 mg/m^2, Day 1, Median, read-out: AUCinf (converted)): 90.8 ng·h/mL and 0.198 µM·h; AUC (Topotecan 0.75 mg/m^2 (Cohort 3) with Compound 1 200 mg/m^2, Day 1, Median, read-out: AUCx5 (converted)): 0.992 µM·h; Cmax (Topotecan 0.75 mg/m^2 (Cohort 3) with Compound 1 200 mg/m^2, Day 1, Median, read-out: Cmax): 26.4 ng/mL; half-life (Topotecan 0.75 mg/m^2 (Cohort 3) with Compound 1 200 mg/m^2, Day 1, Median, read-out: t½ (converted)): 4.3 h; AUC (Topotecan 0.75 mg/m^2 (Cohort 3) with Compound 1 200 mg/m^2, Day 1, individual subjects, read-out: AUC24.5): 83.5 ng·h/mL; AUC(0-inf) (Topotecan 0.75 mg/m^2 (Cohort 3) with Compound 1 200 mg/m^2, Day 1, individual subjects, read-out: AUCinf (converted)): 84.8 ng·h/mL and 0.185 µM·h; AUC (Topotecan 0.75 mg/m^2 (Cohort 3) with Compound 1 200 mg/m^2, Day 1, individual subjects, read-out: AUCx5 (converted)): 0.927 µM·h; half-life (Topotecan 0.75 mg/m^2 (Cohort 3) with Compound 1 200 mg/m^2, Day 1, individual subjects, read-out: t½ (converted)): 4.32 h; AUC (Topotecan 0.75 mg/m^2 (Cohort 3) with Compound 1 200 mg/m^2, Day 4, Mean, read-out: AUCτ (converted)): 92.4 ng·h/mL and 0.202 µM·h; Cmax (Topotecan 0.75 mg/m^2 (Cohort 3) with Compound 1 200 mg/m^2, Day 4, Mean, read-out: Cmax): 24.5 ng/mL; half-life (Topotecan 0.75 mg/m^2 (Cohort 3) with Compound 1 200 mg/m^2, Day 4, Mean, read-out: t½ (converted)): 4.78 h; AUC (Topotecan 0.75 mg/m^2 (Cohort 3) with Compound 1 200 mg/m^2, Day 4, Median, read-out: AUCτ (converted)): 91.7 ng·h/mL and 0.2 µM·h; Cmax (Topotecan 0.75 mg/m^2 (Cohort 3) with Compound 1 200 mg/m^2, Day 4, Median, read-out: Cmax): 24.5 ng/mL; half-life (Topotecan 0.75 mg/m^2 (Cohort 3) with Compound 1 200 mg/m^2, Day 4, Median, read-out: t½ (converted)): 4.7 h; AUC (Topotecan 0.75 mg/m^2 (Cohort 3) with Compound 1 200 mg/m^2, Day 4, individual subjects, read-out: AUCτ (converted)): 83.7 ng·h/mL and 0.183 µM·h; Cmax (Topotecan 0.75 mg/m^2 (Cohort 3) with Compound 1 200 mg/m^2, Day 4, individual subjects, read-out: Cmax): 26.4 ng/mL; half-life (Topotecan 0.75 mg/m^2 (Cohort 3) with Compound 1 200 mg/m^2, Day 4, individual subjects, read-out: t½ (converted)): 4.63 h; AUC (Topotecan 1.25 mg/m^2 (Cohort 2) with Compound 1 200 mg/m^2, Day 1, Mean, read-out: AUC24.5): 175 ng·h/mL; AUC(0-inf) (Topotecan 1.25 mg/m^2 (Cohort 2) with Compound 1 200 mg/m^2, Day 1, Mean, read-out: AUCinf (converted)): 180 ng·h/mL and 0.392 µM·h; AUC (Topotecan 1.25 mg/m^2 (Cohort 2) with Compound 1 200 mg/m^2, Day 1, Mean, read-out: AUCx5 (converted)): 1.97 µM·h; Cmax (Topotecan 1.25 mg/m^2 (Cohort 2) with Compound 1 200 mg/m^2, Day 1, Mean, read-out: Cmax): 63.7 ng/mL; half-life (Topotecan 1.25 mg/m^2 (Cohort 2) with Compound 1 200 mg/m^2, Day 1, Mean, read-out: t½ (converted)): 4.93 h; AUC (Topotecan 1.25 mg/m^2 (Cohort 2) with Compound 1 200 mg/m^2, Day 1, Median, read-out: AUC24.5): 159 ng·h/mL; AUC(0-inf) (Topotecan 1.25 mg/m^2 (Cohort 2) with Compound 1 200 mg/m^2, Day 1, Median, read-out: AUCinf (converted)): 162 ng·h/mL and 0.355 µM·h; AUC (Topotecan 1.25 mg/m^2 (Cohort 2) with Compound 1 200 mg/m^2, Day 1, Median, read-out: AUCx5 (converted)): 1.77 µM·h; Cmax (Topotecan 1.25 mg/m^2 (Cohort 2) with Compound 1 200 mg/m^2, Day 1, Median, read-out: Cmax): 57.7 ng/mL; half-life (Topotecan 1.25 mg/m^2 (Cohort 2) with Compound 1 200 mg/m^2, Day 1, Median, read-out: t½ (converted)): 4.92 h; half-life (Topotecan 1.25 mg/m^2 (Cohort 2) with Compound 1 200 mg/m^2, Day 1, individual subjects, read-out: t½ (converted)): 4.78 h; AUC (Topotecan 1.25 mg/m^2 (Cohort 2) with Compound 1 200 mg/m^2, Day 4, Mean, read-out: AUCτ (converted)): 171 ng·h/mL and 0.375 µM·h; Cmax (Topotecan 1.25 mg/m^2 (Cohort 2) with Compound 1 200 mg/m^2, Day 4, Mean, read-out: Cmax): 59.6 ng/mL; AUC (Topotecan 1.25 mg/m^2 (Cohort 2) with Compound 1 200 mg/m^2, Day 4, Median, read-out: AUCτ (converted)): 158 ng·h/mL and 0.345 µM·h; Cmax (Topotecan 1.25 mg/m^2 (Cohort 2) with Compound 1 200 mg/m^2, Day 4, Median, read-out: Cmax): 41.8 ng/mL; half-life (Topotecan 1.25 mg/m^2 (Cohort 2) with Compound 1 200 mg/m^2, Day 4, Median, read-out: t½ (converted)): 5.39 h; AUC (Topotecan 1.25 mg/m^2 (Cohort 2) with Compound 1 200 mg/m^2, Day 4, individual subjects, read-out: AUCτ (converted)): 158 ng·h/mL and 0.345 µM·h; half-life (Topotecan 1.25 mg/m^2 (Cohort 2) with Compound 1 200 mg/m^2, Day 4, individual subjects, read-out: t½ (converted)): 5.39 h; AUC (Topotecan […]^2 (Cohort 1) with Compound 1 200 mg/m^2, Day 1, Mean, read-out: AUC24.5): 150 ng·h/mL; AUC (Topotecan […]^2 (Cohort 1) with Compound 1 200 mg/m^2, Day 1, Mean, read-out: AUCx5 (converted)): 1.66 µM·h; Cmax (Topotecan […]^2 (Cohort 1) with Compound 1 200 mg/m^2, Day 1, Mean, read-out: Cmax): 69.5 ng/mL; half-life (Topotecan […]^2 (Cohort 1) with Compound 1 200 mg/m^2, Day 1, Mean, read-out: t½ (converted)): 4.33 h; AUC (Topotecan […]^2 (Cohort 1) with Compound 1 200 mg/m^2, Day 1, Median, read-out: AUC24.5): 150 ng·h/mL; AUC (Topotecan […]^2 (Cohort 1) with Compound 1 200 mg/m^2, Day 1, Median, read-out: AUCx5 (converted)): 1.66 µM·h; Cmax (Topotecan […]^2 (Cohort 1) with Compound 1 200 mg/m^2, Day 1, Median, read-out: Cmax): 69.5 ng/mL; half-life (Topotecan […]^2 (Cohort 1) with Compound 1 200 mg/m^2, Day 1, Median, read-out: t½ (converted)): 4.33 h; AUC (Topotecan […]^2 (Cohort 1) with Compound 1 200 mg/m^2, Day 1, individual subjects, read-out: AUC24.5): 130 ng·h/mL; AUC (Topotecan […]^2 (Cohort 1) with Compound 1 200 mg/m^2, Day 1, individual subjects, read-out: AUCx5 (converted)): 1.44 µM·h; half-life (Topotecan […]^2 (Cohort 1) with Compound 1 200 mg/m^2, Day 1, individual subjects, read-out: t½ (converted)): 4.56 h; Cmax (Topotecan […]^2 (Cohort 1) with Compound 1 200 mg/m^2, Day 4, Mean, read-out: Cmax): 89.3 ng/mL; half-life (Topotecan […]^2 (Cohort 1) with Compound 1 200 mg/m^2, Day 4, Mean, read-out: t½ (converted)): 4.87 h; Cmax (Topotecan […]^2 (Cohort 1) with Compound 1 200 mg/m^2, Day 4, Median, read-out: Cmax): 89.3 ng/mL; half-life (Topotecan […]^2 (Cohort 1) with Compound 1 200 mg/m^2, Day 4, Median, read-out: t½ (converted)): 4.87 h; half-life (Topotecan […]^2 (Cohort 1) with Compound 1 200 mg/m^2, Day 4, individual subjects, read-out: t½ (converted)): 5.11 h; AUC(0-inf) (topotecan 0.75 mg/m^2 (Cohort 3) after Compound 1 200 mg/m^2, Day 1, mean, read-out: AUCinf averaged): 94.4 ng·h/mL; Cmax (topotecan 0.75 mg/m^2 (Cohort 3) after Compound 1 200 mg/m^2, Day 1, mean, read-out: Cmax averaged): 27.3 ng/mL; half-life (topotecan 0.75 mg/m^2 (Cohort 3) after Compound 1 200 mg/m^2, Day 1, mean, read-out: Half-lives averaged (converted)): 4.33 h; Cmax (topotecan 0.75 mg/m^2 (Cohort 3) after Compound 1 200 mg/m^2, Day 4, mean, read-out: Cmax averaged): 24.5 ng/mL; AUC(0-inf) (topotecan 1.25 mg/m^2 (Cohort 2) after Compound 1 200 mg/m^2, Day 1, mean, read-out: AUCinf averaged): 180 ng·h/mL; Cmax (topotecan 1.25 mg/m^2 (Cohort 2) after Compound 1 200 mg/m^2, Day 1, mean, read-out: Cmax averaged): 63.7 ng/mL; half-life (topotecan 1.25 mg/m^2 (Cohort 2) after Compound 1 200 mg/m^2, Day 1, mean, read-out: Half-lives averaged (converted)): 4.93 h; Cmax (topotecan 1.25 mg/m^2 (Cohort 2) after Compound 1 200 mg/m^2, Day 4, mean, read-out: Cmax averaged): 59.6 ng/mL; AUC(0-inf) (topotecan […]^2 (Cohort 1) after Compound 1 200 mg/m^2, Day 1, mean, read-out: AUCinf averaged): 152 ng·h/mL; Cmax (topotecan […]^2 (Cohort 1) after Compound 1 200 mg/m^2, Day 1, mean, read-out: Cmax averaged): 69.5 ng/mL; half-life (topotecan […]^2 (Cohort 1) after Compound 1 200 mg/m^2, Day 1, mean, read-out: Half-lives averaged (converted)): 4.33 h; Cmax (topotecan […]^2 (Cohort 1) after Compound 1 200 mg/m^2, Day 4, mean, read-out: Cmax averaged): 89.3 ng/mL; half-life (read-out: t½ (converted)): 5.45 h
